Experimental data: patent publication US7186732B2, “Non-imidazole aryloxyalkylamines” (Ortho-McNeil Pharmaceutical, Inc., priority 2000, dated 2007)

target: T1, human histamine H3 receptor (Homo sapiens, UniProt Q9Y5N1); experiment: [3H]-N-methylhistamine binding to membranes of histamine H3 receptor-expressing SK-N-MC cells; details: 0.8 nM [3H]-N-methylhistamine, 45 min at 25° C., SK-N-MC cell membranes; Ki=(IC50)/(1+([L]/(Kd)); read-out: Ki
T1 construct: expressed in transfected cells; membranes prepared from cell pellets
T1 sequence (Q9Y5N1 whole entry): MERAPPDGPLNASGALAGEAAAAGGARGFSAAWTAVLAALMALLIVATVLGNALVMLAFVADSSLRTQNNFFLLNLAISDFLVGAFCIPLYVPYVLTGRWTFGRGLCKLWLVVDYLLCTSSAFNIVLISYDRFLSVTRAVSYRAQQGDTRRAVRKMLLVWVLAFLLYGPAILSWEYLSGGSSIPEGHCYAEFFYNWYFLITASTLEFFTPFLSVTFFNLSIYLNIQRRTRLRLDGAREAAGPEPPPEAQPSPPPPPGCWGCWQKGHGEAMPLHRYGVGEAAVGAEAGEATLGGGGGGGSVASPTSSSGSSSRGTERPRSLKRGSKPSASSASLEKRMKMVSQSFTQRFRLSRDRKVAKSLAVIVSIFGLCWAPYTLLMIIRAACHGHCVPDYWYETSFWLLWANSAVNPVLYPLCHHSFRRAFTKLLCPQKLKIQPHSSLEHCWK
Method: Thus in the present invention receptor binding was determined using the human histamine H3 receptor (See Lovenberg et al Mol. Pharmacol. 1999, 1107). Screening using the human receptor is particularly important for the identification of new therapies for the treatment of human disease. Conventional binding assays for example are determined using rat synaptosomes (Garbarg et al J. Pharmacol. Exp. Ther. 1992, 263, 304), rat cortical membranes (West et al Mol. Pharmacol. 1990, 610), and guinea pig brain (Korte et al Biochem. Biophys. Res. Commun. 1990, 978).
Transfection of Cells with Human Histamine Receptor
A 10 cm tissue culture dish with a confluent monolayer of SK-N-MC cells was split two days prior to transfection. Using sterile technique the media was removed and the cells were detached from the dish by the addition of trypsin. One fifth of the cells were then placed onto a new 10 cm dish. Cells were grown in a 37° C. incubator with 5% CO2 in Minimal Essential Media Eagle with 10% Fetal Bovine Serum. After two days cells were approximately 80% confluent. These were removed from the dish with trypsin and pelleted in a clinical centrifuge. The pellet was then re-suspended in 400 μL complete media and transferred to an electroporation cuvette with a 0.4 cm gap between the electrodes (Bio-Rad #165–2088). One microgram of supercoiled H3 receptor cDNA was added to the cells and mixed. The voltage for the electroporation was set at 0.25 kV, the capacitance was set at 960 μF. After electroporation the cells were diluted into 10 mL complete media and plated onto four 10 cm dishes. Because of the variability in the efficiency of electroporation, four different concentrations of cells were plated. The ratios used were; 1:20, 1:10, 1:5, with the remainder of the cells being added to the fourth dish. The cells were allowed to recover for 24 hours before adding the selection media (complete media with 600 μg/mL G418). After 10 days dishes were analyzed for surviving colonies of cells. Dishes with well isolated colonies were used. Cells from individual colonies were isolated and tested. SK-N-MC cells were used because they give efficient coupling for inhibition of adenylate cyclase. The clones that gave the most robust inhibition of adenylate cyclase in response to histamine were used for further study.
[^3H]-N-methylhistamine Binding
Cell pellets from histamine H3 receptor-expressing SK-N-MC cells were homogenized in 20 mM TrisHCI/0.5 mM EDTA. Supernatants from a 800 g spin were collected, recentrifuged at 30,000 g for 30 minutes. Pellets were re-homogenized in 50 mM Tris/5 mM EDTA (pH 7.4). Membranes were incubated with 0.8 nM [^3H]-N-methylhistamine plus/minus test compounds for 45 min at 25° C. and harvested by rapid filtration over GF/C glass fiber filters (pretreated with 0.3% polyethylenimine) followed by four washes with ice cold buffer. Filters were dried, added to 4 mL scintillation cocktail and then counted on a liquid scintillation counter. Non-specific binding was defined with 10 μM histamine. The pKi values were calculated based on a Kd of 800 pM and a ligand concentration ([L]) of 800 pM according to the formula: Ki=(IC50)/(1+([L]/(Kd))

How did the Ki turn out when `c1cc(OCCCN2CCCCC2)ccc1OCCCN1CCCCC1` [Example 31, 1-{3-[4-(3-Piperidin-1-yl-propoxy)-phenoxy]-propyl}-piperidine] was run?
The Ki was 0.5 nM.

`c1cc(OCCCN2CCOCC2)ccc1CN1CCCCC1` [Example 51, 4-[3-(4-Piperidin-1-ylmethyl-phenoxy)-propyl]-morpholine] was tested. Which Ki did it give?
The Ki was 4 nM.

How did the Ki turn out when `NC(=O)C1CCN(Cc2ccc(OCCCN3CCCCC3)cc2)CC1` [Example 57, 1-[4-(3-Piperidin-1-yl-propoxy)-benzyl]-piperidine-4-carboxylic acid amide] was run?
The Ki was 1 nM.

For `CN(CCc1ccccc1)Cc1ccc(OCCCN2CCCCC2)cc1` [Example 83, Methyl-phenethyl-[4-(3-piperidin-1-yl-propoxy)-benzyl]-amine], which Ki is on record?
The Ki was 1.7 nM.

For `c1ccc(NCc2ccccc2OCCCN2CCCCC2)nc1` [Example 65, [2-(3-Piperidin-1-yl-propoxy)-benzyl]-pyridin-2-yl-amine], which Ki is on record?
Its Ki is 100 nM.

With `c1ccc(NCc2ccc(OCCCN3CCCCC3)cc2)cc1` [Example 62, Phenyl-[4-(3-piperidin-1-yl-propoxy)-benzyl]-amine] as the molecule, how does the Ki read?
The Ki was 7 nM.

With `c1ccc2c(c1)CCC2NCc1ccc(OCCCN2CCCCC2)cc1` (stereo not drawn) [Example 47, Indan-1-yl-[4-(3-piperidin-1-yl-propoxy)-benzyl]-amine] as the molecule, how does the Ki read?
Its Ki is 1 nM.

`CN(C)Cc1ccc(OCCCN2CCCCC2)cc1` [Example 59, Dimethyl-[4-(3-piperidin-1-yl-propoxy)-benzyl]-amine] was tested. Which Ki did it give?
The Ki was 2 nM.

`c1ccc(-c2ccc(OCCCN3CCCCC3)cc2)c(CN2CCCCC2)c1` [Example 34, 1-[3-(2′-Piperidin-1-ylmethyl-biphenyl-4-yloxy)-propyl]-piperidine] was tested. Which Ki did it give?
The Ki was 1.5 nM.

How did the Ki turn out when `c1cc(OCCCN2CCCCC2)ccc1CN1CCOCC1` [Example 94, 4-[4-(3-Piperidin-1-yl-propoxy)-benzyl]-morpholine] was run?
Its Ki is 0.7 nM.

Which Ki does the source give for `Clc1ccc(NCc2ccccc2OCCCN2CCCCC2)cc1` [Example 67, (4-Chloro-phenyl)-[2-(3-piperidin-1-yl-propoxy)-benzyl]-amine] here?
The Ki was 1500 nM.

For `Clc1ccc(NCc2cccc(OCCCN3CCCCC3)c2)cc1` [Example 68, (4-Chloro-phenyl)-[3-(3-piperidin-1-yl-propoxy)-benzyl]-amine], which Ki is on record?
The Ki was 89 nM.

With `C(=C1CCN(Cc2cccc(OCCCN3CCCCC3)c2)CC1)c1ccccc1` [Example 71, 1-{3-[3-(4-Benzylidene-piperidin-1-ylmethyl)-phenoxy]-propyl}-piperidine] as the molecule, how does the Ki read?
Its Ki is 1.8 nM.

Which Ki does the source give for `c1ccc(NC2CCN(Cc3ccc(OCCCN4CCCCC4)cc3)CC2)nc1` [Example 41, {1-[4-(3-Piperidin-1-yl-propoxy)-benzyl]-piperidin-4-yl}-pyridin-2-yl-amine] here?
The Ki was 0.8 nM.

How did the Ki turn out when `CN(C)CCCOc1ccc(CN2CCCCC2)cc1` [Example 40, Dimethyl-[3-(4-piperidin-1-ylmethyl-phenoxy)-propyl]-amine] was run?
The Ki was 5.7 nM.

How did the Ki turn out when `CN(Cc1ccccc1)C1CCN(Cc2ccc(OCCCN3CCCCC3)cc2)CC1` [Example 43, Benzyl-methyl-{1-[4-(3-piperidin-1-yl-propoxy)-benzyl]-piperidin-4-yl}-amine] was run?
Its Ki is 0.5 nM.

Which Ki does the source give for `c1cc(-c2ccc(OCCCN3CCCCC3)cc2)n(CCCN2CCCCC2)c1` [Example 96, 1-(3-{4-[1-(3-Piperidin-1-yl-propyl)-1H-pyrrol-2-yl]-phenoxy}-propyl)-piperidine] here?
Its Ki is 1.5 nM.

Which Ki does the source give for `CN(CCc1ccccn1)Cc1ccc(OCCCN2CCCCC2)cc1` [Example 78, Methyl-[4-(3-piperidin-1-yl-propoxy)-benzyl]-(2-pyridin-2-yl-ethyl)-amine] here?
The Ki was 1 nM.

`c1cc(OCCCN2CCCCC2)ccc1CNC1CC1` [Example 50, Cyclopropyl-[4-(3-piperidin-1-yl-propoxy)-benzyl]-amine] was tested. Which Ki did it give?
Its Ki is 1 nM.

For `Clc1ccc(N2CC3CC2CN3Cc2ccc(OCCCN3CCCCC3)cc2)cc1` (stereo not drawn) [Example 55, 2-(4-Chloro-phenyl)-5-[4-(3-piperidin-1-yl-propoxy)-benzyl]-2,5-diaza-bicyclo[2.2.1]heptane], which Ki is on record?
The Ki was 1.4 nM.

How did the Ki turn out when `CC(C)N1CCN(c2ccc(OCCCN3CCCCC3)cc2)CC1` [Example 26, 1-Isopropyl-4-[4-(3-piperidin-1-yl-propoxy)-phenyl]-piperazine] was run?
The Ki was 0.3 nM.

How did the Ki turn out when `CN(CCc1ccccc1)C1CCN(Cc2ccc(OCCCN3CCCCC3)cc2)CC1` [Example 42, Methyl-phenethyl-{1-[4-(3-piperidin-1-yl-propoxy)-benzyl]-piperidin-4-yl}-amine] was run?
The Ki was 1.1 nM.

With `CN1CCN(Cc2ccc(OCCCN3CCCCC3)cc2)CC1` [Example 53, 1-Methyl-4-[4-(3-piperidin-1-yl-propoxy)-benzyl]-piperazine] as the molecule, how does the Ki read?
Its Ki is 2.5 nM.

Which Ki does the source give for `c1ccc(CC2CCN(Cc3ccc(OCCCN4CCCCC4)cc3)CC2)cc1` [Example 93, 1-{3-[4-(4-Benzyl-piperidin-1-ylmethyl)-phenoxy]-propyl}-piperidine] here?
Its Ki is 1.3 nM.

With `c1ccc2c(c1)CCN(Cc1ccc(OCCN3CCCCC3)cc1)C2` [Example 21, 2-[4-(2-Piperidin-1-yl-ethoxy)-benzyl]-1,2,3,4-tetrahydro-isoquinoline] as the molecule, how does the Ki read?
Its Ki is 4 nM.

Which Ki does the source give for `c1ccc(N2CCN(Cc3ccc(OCCCN4CCCCC4)cc3)CC2)cc1` [Example 91, 1-Phenyl-4-[4-(3-piperidin-1-yl-propoxy)-benzyl]-piperazine] here?
The Ki was 1 nM.

Which Ki does the source give for `CN1CCCC1c1ccc(OCCCN2CCCCC2)cc1` (stereo not drawn) [Example 37, 1-{3-[4-(1-Methyl-pyrrolidin-2-yl)-phenoxy]-propyl}-piperidine] here?
Its Ki is 0.4 nM.

For `c1ccc(NCc2ccc(OCCCN3CCCCC3)cc2)nc1` [Example 84, [4-(3-Piperidin-1-yl-propoxy)-benzyl]-pyridin-2-yl-amine], which Ki is on record?
Its Ki is 5 nM.

Which Ki does the source give for `OC1(c2ccccc2)CCN(Cc2ccc(OCCCN3CCCCC3)cc2)CC1` [Example 87, 4-Phenyl-1-[4-(3-piperidin-1-yl-propoxy)-benzyl]-piperidin-4-ol] here?
Its Ki is 1 nM.

With `CN(Cc1ccccc1)Cc1ccc(OCCCN2CCCCC2)cc1` [Example 80, Benzyl-methyl-[4-(3-piperidin-1-yl-propoxy)-benzyl]-amine] as the molecule, how does the Ki read?
Its Ki is 1 nM.

How did the Ki turn out when `CN1CCN(CCCOc2ccc(CN3CCCCC3)cc2)CC1` [Example 52, 1-Methyl-4-[3-(4-piperidin-1-ylmethyl-phenoxy)-propyl]-piperazine] was run?
Its Ki is 25 nM.

Which Ki does the source give for `c1cc(OCCCN2CCCCC2)ccc1CN1CCCC1` [Example 48, 1-[3-(4-Pyrrolidin-1-ylmethyl-phenoxy)-propyl]-piperidine] here?
The Ki was 1.2 nM.

same assay, conditions: 0.8 nM [3H]-N-methylhistamine, 45 min at 25° C., SK-N-MC cell membranes; […]; read-out: Ki

`c1ccc2c(c1)ncn2C1CCN(Cc2ccc(OCCCN3CCCCC3)cc2)CC1` [Example 60, 1-{1-[4-(3-Piperidin-1-yl-propoxy)-benzyl]-piperidin-4-yl}-1H-benzoimidazole] was tested. Which Ki did it give?
Its Ki is 2 nM.

With `CC(C)N1CCC(O)(c2ccc(OCCCN3CCCCC3)cc2)CC1` [Example 77, 1-Isopropyl-4-[4-(3-piperidin-1-yl-propoxy)-phenyl]-piperidin-4-ol] as the molecule, how does the Ki read?
Its Ki is 2.9 nM.

`Brc1ccc2c(c1)CCN2C1CCN(Cc2ccc(OCCCN3CCCCC3)cc2)CC1` [Example 63, 5-Bromo-1-{1-[4-(3-piperidin-1-yl-propoxy)-benzyl]-piperidin-4-yl}-2,3-dihydro-1H-indole] was tested. Which Ki did it give?
The Ki was 3 nM.

For `c1ccc(CN2CCN(Cc3ccc(OCCCN4CCCCC4)cc3)CC2)cc1` [Example 90, 1-Benzyl-4-[4-(3-piperidin-1-yl-propoxy)-benzyl]-piperazine], which Ki is on record?
Its Ki is 0.9 nM.

For `c1ccc2c(c1)CCN2C1CCN(Cc2ccc(OCCCN3CCCCC3)cc2)CC1` [Example 64, 1-{1-[4-(3-Piperidin-1-yl-propoxy)-benzyl]-piperidin-4-yl}-2,3-dihydro-1H-indole], which Ki is on record?
Its Ki is 2 nM.

`OCCC1CCN(Cc2ccc(OCCCN3CCCCC3)cc2)CC1` [Example 46, 2-{1-[4-(3-Piperidin-1-yl-propoxy)-benzyl]-piperidin-4-yl}-ethanol] was tested. Which Ki did it give?
The Ki was 1.2 nM.

For `OC1(c2ccc(OCCCN3CCCCC3)cc2)CCN(Cc2ccccc2)CC1` [Example 22, 1-Benzyl-4-[4-(3-piperidin-1-yl-propoxy)-phenyl]-piperidin-4-ol], which Ki is on record?
The Ki was 0.9 nM.
